This is an account of results in patent US20250338846A1, “COMPOSITIONS HAVING PESTICIDAL UTILITY AND PROCESSES RELATED THERETO” (CORTEVA AGRISCIENCE, LLC, priority 2022, published 2025).

Holding throughout (assay type): in vivo
Test [1] deals with Cotton Aphid (Aphis gossypii, APHIGO). The experiment in a line: Bioassay 7: Cotton Aphid, foliar spray on infested cotton seedlings, live aphids counted three days after treatment. The note with it: AI alone 5 (10^-5) Wt %. How it is done: where X=No. of live larvae on solvent check and Y=No. of live larvae on treated diet. In Table B6 the “Expected % Control” was calculated using the method described in Colby S. R., Weeds, 1967, 15, 20-22. Bioassay 7: Cotton Aphid (Aphis gossypii, APHIGO) (“CA”).
Stock solutions of Formula One and one or more of the active ingredients were prepared at concentrations of 1 mg/mL using a 1:1 mixture of acetone: methanol as a diluent. The stock solutions were prepared with Formula One as well as for each of the active ingredients individually. Test solutions were prepared from the stock solutions. Test solutions were prepared containing Formula One, the individual active ingredients, and mixtures of Formula One with each of the active ingredients. The test solutions for Formula One and the individual active ingredients were prepared by adding 1.5 mL of stock solution to a 30 mL glass vial, then adding 1.5 mL of 1:1 acetone: methanol solvent, followed by the addition of 27 mL water with 0.025% Tween® 20 to create a […]. Each test solution was serially diluted to create desired doses of test solutions ranging from 0.000001 to 0.0025% (w/v). The test solutions were tested against CA using the following procedure: cotton seedlings were grown in 3-inch pots with one true leaf (2-5 cm in diameter) were used as test substrate. The seedlings were infested with 20-50 CA (wingless adult and nymph stages) one day prior to chemical application. Four pots with individual seedlings were used for each treatment. A hand-held aspirator-type sprayer was used for spraying a solution to both sides of […] leaves until runoff. Reference plants (solvent check) were sprayed with the diluent only (0.025% Tween® 20 and 10% acetone:methanol (1:1) in water). Treated plants were held in a holding room for three days at approximately 25° C. and ambient relative humidity (RH about 20% to about 45%) prior to grading. Evaluation was conducted by counting the number of live aphids per plant under a microscope three days after treatment. Percent control was measured using Abbott's correction formula (W. S. Abbott, J. Econ. Entomol. 18 (1925), pp. 265-267) as follows:
where X=No. of live aphids on solvent check plants and Y=No. of live aphids on treated plants. In Table B1 the “Expected % Control” was calculated using the method described in Colby S. R., Weeds, 1967, 15, 20-22. Bioassay 8: Sweet Potato Whitefly (Bemisia tabaci, BEMITA) (“SPW”).

Test [2] relates to Diamondback Moth (Plutella xylostella, PLUTMA). The experiment in a line: Bioassay 9: Diamondback Moth, leaves of track-sprayed cabbage plants, mortality and feeding damage scored. How it is done: where X=No. of live nymphs on solvent check plants and Y=No. of live nymphs on treated plants. In Table B2 the “Expected % Control” was calculated using the method described in Colby S. R., Weeds, 1967, 15, 20-22. Bioassay 9: Diamondback Moth (Plutella xylostella, PLUTMA) (DBM).
Stock solutions were prepared with Formula One as well as for each of the active ingredients individually. Test solutions were prepared from the stock solutions. Test solutions were prepared containing Formula One, the individual active ingredients, and mixtures of Formula One with each of the active ingredients. The test solution for Formula One was prepared by adding 500 μL of the stock solution to a 25 mL glass vial, then adding 500 μL of a 9:1 mixture of acetone: water. The individual active ingredients were prepared by adding 500 μL of stock solution to a 25 mL glass vial, then adding 500 μL of a 9:1 mixture of acetone: water. The test solutions containing mixtures of Formula One and the individual active ingredients were prepared by adding 500 μL of the active ingredient stock solution to a 25 mL glass vial, followed by 500 μL of the Formula One stock solution, creating a test solution containing 4000 ppm Formula One and 0.4% (w/v) of the active ingredient. Each test solution was serially diluted to create desired doses of test solutions (0.4% (w/v), 0.04% (w/v), 0.004% (w/v), 0.0004% (w/v), 0.00004% (w/v), and 0.000004% (w/v)). In test solutions containing mixtures of Formula One and the active ingredients, the active ingredients were diluted as described above, but the Concentration of Formula One was held constant (0.4% (w/v)). The highest dose test solution (0.4% (w/v)) was discarded, leaving 5 test solution concentrations used in the test.
Cabbage seedlings, grown in 3-inch pots with 2-3 small (3-5 centimeter (cm)) true leaves, were used as test substrate. Cabbage plants were sprayed with desired concentrations of Formula One and active ingredients or their mixtures using a track Sprayer. Reference plants (solvent check) were sprayed with diluent only (0.025% Tween® 20 and 10% acetone:methanol (1:1) in water). The sprayed cabbage plants were allowed to dry for 1 hour, after which leaves from each treatment were placed in a cell of a plastic tray. One leaf per cell and 8 replicates for each cell. The tested doses ranged between 0.000001% (w/v) to 0.0002% (w/v). One 2nd instar DBM larvae were placed in each cell of the tray and allowed to feed on the cabbage foliage for […] after which the mortality and feeding damage were scored. Test trays were held at approximately 26° C. and ambient relative humidity (RH) prior to grading. The number of live larvae were recorded from each cell and percent control was measured using Abbott's correction formula (W. S. Abbott, J. Econ. Entomol. 18 (1925), pp. 265-267) as follows:
where X=No. of live larvae on solvent check and Y=No. of live larvae on treated diet. In Table B6 the “Expected % Control” was calculated using the method described in Colby S. R., Weeds, 1967, 15, 20-22.

Test [3] relates to Western Tarnished Plant Bug (Lygus hesperus, LYGUHE). The experiment in a line: Bioassay 4: Western Tarnished Plant Bug, soaked green bean segments, living nymphs 3 days after application. The following applies: AI alone 0.005 % w/v. How it is done:
(§1) where X=No. of live nymphs on solvent check leaf discs and Y=No. of live nymphs on treated leaf discs. In Table B3 the “Expected % Control” was calculated using the method described in Colby S. R., Weeds, 1967, 15, 20-22. Bioassay 4: Western Tarnished Plant Bug (Lygus hesperus, LYGUHE) (“WTPB”).
(§2) Stock solutions were prepared with Formula One as well as for each of the active ingredients individually. Test solutions were prepared from the stock solutions. Test solutions were prepared containing Formula One, the individual active ingredients, and mixtures of Formula One with each of the active ingredients. The test solution for Formula One was prepared by adding 500 μL of the stock solution to a 25 mL glass vial, then adding 500 μL of acetone, followed by the addition of 9 mL water with 0.025% Tween®) 20 to create a 0.04% (w/v) solution. The test solutions of the individual active ingredients were prepared by adding 500 μL of stock solution to a 25 mL glass vial, then adding 500 μL of acetone, followed by the addition of 9 mL water with 0.025% Tween®) 20 to create a 0.005% (w/v) solution. The test solutions containing mixtures of Formula One and the individual active ingredients were prepared by adding 500 μL of the active ingredient stock solution to a 25 mL glass vial, followed by 500 μL of the Formula One stock solution, then by the addition of 9 mL water with 0.025% Tween®) 20 to create a test solution containing 0.04% (w/v) Formula One and 0.005% (w/v) of the active ingredient. Each test solution was serially diluted to create desired doses of test solutions (0.005% (w/v), 0.00125% (w/v), 0.0003125% (w/v), 0.000078% (w/v), and 0.0000195% (w/v)). In test solutions containing mixtures of Formula One and the active ingredients, the active ingredients were diluted as described above, but the Concentration of Formula One was held constant (0.04% (w/v)).
The test solutions were tested against WTPB using the following procedure: Fresh green beans were cut into segments approximately 1.5 inches long. Four bean segments were added to each 25 mL vial containing the test solutions and soaked for approximately 15 minutes. After soaking, a single bean fragment was removed and placed into a single well of a 32-well rearing tray (Frontier Agricultural Sciences™), on top of a round filter paper disc. A reference treatment (solvent check) was treated with the diluent only. Each treatment was replicated four times and the test treatments were held at approximately 26° C. and ambient relative humidity (RH) prior to grading. Bean segments were allowed to air dry for ˜30 minutes. Three WTPB nymphs were added to and contained in each well with a clear perforated adhesive lid. The total number of living WTPB nymphs was recorded 3 days after application. Scoring was based off the total number of living nymphs out of all four replicates. Percent control was measured using Abbott's correction formula (W. S. Abbott, J. Econ. Entomol. 18 (1925), pp. 265-267) as follows:
X=No. of live nymphs on solvent check and Y=No. of live nymphs on treated bean segments. In Table B4 the “Expected % Control” was calculated using the method described in Colby S. R., Weeds, 1967, 15, 20-22. Bioassay 5: Neotropical Brown Stink Bug (Euschistus heros, EUSCHE) (“BSB”).

The test system of test [4] is Western Flower Thrips (Frankliniella occidentalis, FRANOC). Description: Bioassay 3: Western Flower Thrips, cotton leaf disc dip, live WFT counted 3 days after treatment. The note with it: AI alone 0.0003125 % w/v. How it is done:
as §2, with “Stock solutions of Formula One and various active ingredients were prepared initially at a concentration of 8 mg/ml for Formula One and 1 mg/mL for the active ingredients, respectively, using acetone as a diluent. Stock” for “Stock”
The test solutions were tested against WFT using the following procedure: Leaf discs (2.7 cm in diameter) were cut from the true leaves of cotton plants. Leaf discs were dipped into the test solutions and shaken to ensure complete coverage of the leaf disc and then placed in Millipore®) PetriSlides containing a filter paper disc. Treated leaf discs were air dried for approximately 1 hour. Each leaf disc was infested with 5 WFT (9-10-day old nymphs) by placement on each leaf disc, and the PetriSlides were capped to prevent escape. Each treatment was replicated three times and the test treatments were held at approximately 26° C. and ambient relative humidity (RH) prior to grading. Reference discs (solvent check) were treated with the diluent only. Evaluation was conducted by counting the number of live WFT under magnification 3 days after treatment. Percent control was measured using Abbott's correction formula (W. S. Abbott, J. Econ. Entomol. 18 (1925), pp. 265-267) as follows:
as §1

Consider `CC1(C)C(C=C(Cl)Cl)C1C(=O)OC(C#N)c1ccc(F)c(Oc2ccccc2)c1` (stereo not drawn) [Beta-Cyfluthrin], for which the “Average % Control A1” value in test [1] is recorded as 21.34%. For the same compound, the “Average % Control AI” value came to 13.64% in test [2] (AI alone 5 (10^-5) Wt %), 27.27% in test [2] (AI alone 10 (10^-5) Wt %) and 72.73% in test [2] (AI alone 20 (10^-5) Wt %).

In the case of `O=c1c(-c2cccc(C(F)(F)F)c2)c([O-])[n+](Cc2cncnc2)c2ccccn12` [Triflumezopyrim], the “Average % Control AI” value in test [3] amounted to 9%; in test [4], 7%.
